Consider seven compounds from article PMC4882560, “Polyketides from the Mangrove-Derived Endophytic Fungus Nectria sp. HN001 and Their α-Glucosidase Inhibitory Activity” (Marine Drugs, 2016).

The assay addresses α-Glucosidase from Saccharomyces cerevisiae. As to the kind of experiment: In vitro α-glucosidase inhibitory activity (UV absorbance at 405 nm, p-nitrophenyl glycoside substrate). As to conditions: for IC50: mean ± SD from three parallel measurements, phosphate buffer pH 7.0, 37 °C, absorbance at 405 nm, read-out: IC50, inhibitory effects against α-glucosidase; for α-glucosidase inhibitory activity (result in words): compared to positive control acarbose. The class given is biochemical. On the procedure: Optical rotations were measured on a Bellingham-Stanley ADP 440+ polarimeter at 25 °C. IR data were recorded on a Nicolet 5DX-FTIR (Thermo Fisher Scientific, Inc., Hudson, NH, USA), in KBr discs. UV data were recorded on a Shimadzu UV-240 spectrophotometer (Shimadzu, Kyoto, Japan). The ^1H NMR (500 MHz), ^13C NMR (125 MHz), and 2D NMR spectra were obtained on a Bruker AVANCE-500 (Bruker BioSpin Corporation, Billerica, MA, USA) using TMS as an internal reference. HRESIMS were acquired on a Thermofisher LTQ Orbitrp Elite LC-MS spectrometer (Thermo Fisher Scientific, Inc., Hudson, NH, USA), and the ESIMS data were measured on a Micro Mass Q-TOF spectrometer (Waters Corporation, Milford, MA, USA). TLC analysis was carried out on silica gel plates (Marine Chemical Ltd., Qingdao, China). RP-C18 silica gel (Fuji, 40–75 μm, Fuji Silysia Chemical Ltd., Kasugai, Japan), Silica gel (200–300 mesh, Marine Chemical Ltd., Qingdao, China), High silica gel (H, Marine Chemical Ltd., Qingdao, China), and Sephadex LH-20 (GE Healthcare Bio-Sciences AB, Stockholm, Sweden) were used for column chromatography (CC).
An assay of α-glucosidase inhibitory activity was performed using a reported method, with slight modifications. All the assays were performed using 0.01 M KH2PO4-K2HPO4 buffers, pH 7.0, and a Bio-Rad iMark microplate reader (Bio-Rad Laboratories, Inc., Kyoto, Japan). Enzyme solution was prepared to give 2.0 Units/mL in 2 mL aliquots. The assay medium contained phosphate buffer, pH 7.0 (130 μL), 10 μL of enzyme solution, 20 μL of DMSO or inhibitor (dissolved in DMSO), and 40 μL of substrate (p-nitrophenyl glycoside, 3 mg/mL). The substrate was added to the assay medium containing enzyme and buffer with inhibitor added after 15 min of incubation time at 37 °C. The activity was determined by measuring the increase in absorbance at 405 nm for a 1 min interval. Calculations were performed according to the equation: η (%) = [(B − S)/B] × 100%
(B stands for the assay medium with DMSO; S stands for the assay medium with inhibitor). All measurements were done in triplicate from two independent experiments. The reported IC50 was the average value of two independent experiments.

Take `CC(/C=C/C(=O)O)=C\C=C\C(C)=C\C(C)=C\C(=O)O` [Compound 1, 2E, 4E, 6E, 8E, 10E-3,5,9-trimethyldodeca-2,4,6,8, 10-pentaenedioic acid]: the IC50 amounted to 121.8 ± 0.4 µM.
Take `COC(=O)/C=C/C(C)=C/C=C/C(C)=C/C(C)=C/C(=O)O` [Compound 2, 2E, 4E, 6E, 8E, 10E-12-methoxy-3,5,9-trimethyl-12-oxododeca-2,4,6,8, 10-pentaenoic acid]: the “α-glucosidase inhibitory activity (result in words)” value (“α-glucosidase inhibitory activity” for short) was “significant inhibitory activity” and the IC50 worked out at 23.5 ± 0.3 µM.
Regarding `COC(=O)/C=C/C(C)=C/C=C/C(C)=C\C(C)=C\C(=O)O` [Compound 3, 2E, 4Z, 6E, 8E, 10E-12-methoxy-3,5,9-trimethyl-12-oxododeca-2,4,6,8, 10-pentaenoic acid], the “α-glucosidase inhibitory activity” value is given as “significant inhibitory activity” and the half-maximal inhibitory concentration (IC50) was 42.3 ± 0.2 µM.
Turning to `C[C@H](O)C[C@@H](O)Cc1cc2cc(O)cc(O)c2c(=O)o1` [Compound 4, 12-epicitreoisocoumarinol], the IC50 amounted to 343.7 ± 1 µM.
As to `C[C@@H](O)C[C@@H](O)Cc1cc2cc(O)cc(O)c2c(=O)o1` [Compound 5, citreoisocoumarinol], the IC50 was 392.5 ± 1.7 µM.
Consider `CC(=O)C[C@@H](O)Cc1cc2cc(O)cc(O)c2c(=O)o1` [Compound 6, citreoisocoumarin], for which the IC50 turned out to be 538.7 ± 4.3 µM.
For `Cc1cc(=O)cc(Cc2cc(O)cc(O)c2)o1` [Compound 7, macrocarpon C], the “α-glucosidase inhibitory activity” value is reported as “did not display inhibitory activity” and the IC50 was greater than 900 µM.
